Data from patent US20040043918A1, “Apoptosis inducers, caspase cascade activators and anticancer agent” (KIMIGAFUCHI GAKUEN, priority 2000, published 2004).

Columns and labels:
Format in all cases: cell-based
[1] = tested on: human promyelocytes of leukemia (HL-60); assay: Caspase-9 inhibition experiment using a flow cytometer (DNA fragmentation, PI dyeing)
Experimental: The following experiment was performed using the reagents prepared in section 1-1. First of all, multiple samples were prepared in stages wherein 0 to 120 μl of caspase-9 inhibitor was added to 12 ml of a suspension ([…]) of human promyelocytes of leukemia (HL-60, purchased from Riken Cell Bank). Then, the mixture were incubated for 90 minutes, 2 ml of liposome solution comprising dimyristoyl phosphatidylcholine was each added to the samples. Subsequently, each of the samples were incubated for three hours. After washing each sample with 2 ml of −PBS, 5 ml of 70% ethanol was added to each sample, and each sample was left at freezing temperature for one hour so as to be subjected to tissue-fixing. Furthermore, following washing each sample with 2 ml of −PSB, 6 ml of RNase solution was added to each sample, and subsequently, each sample was incubated for 30 minutes. Next, following adding 670 μl of PI solution, each sample was shielded from light with aluminum foil, and was left in a dark place at freezing temperature for 30 minutes, and was subjected to PI dyeing. After PI dyeing, each sample was subjected to centrifugal separation at 2000 rpm for five minutes. After removal of supernatant, and the precipitation formed was suspended in 500 μl of −PBS so as to measure DNA content using a flow cytometer (product name, COULTER EPICS-XL). Inhibition effects were evaluated by the ratios of the DNA fragmentation percentage of the control (wherein no caspase-9 inhibitor was added, and only a liposome solution comprising dimyristoyl phosphatidylcholine was added) to the DNA fragmentation percentages of the samples wherein caspase-9 inhibitor was added in stages.

[2] = tested on: human promyelocytes of leukemia (HL-60); assay: Procaspase-3 catabolic enzyme inhibition experiment using a flow cytometer; details: inhibitor preincubated, then DMPC liposome solution, FIG. 4
[3] = tested on: human promyelocytes of leukemia (HL-60); assay: Caspase-1,4 inhibition experiment using a flow cytometer; details: inhibitor preincubated, then DMPC liposome solution, FIG. 5
[4] = control without caspase-9 inhibitor, only DMPC liposome solution, three hours

CCCCCCCCCCCCCC(=O)OC[C@H](COP(=O)([O-])OCC[N+](C)(C)C)OC(=O)CCCCCCCCCCCCC [dimyristoyl phosphatidylcholine, 1,2-dimyristoyl-sn-glycero-3-phosphocholine]
DNA fragmentation of human promyelocytes of leukemia [1, 4]: clearly observed
apoptosis induction [1, 4]: apoptosis was induced

Ac—L-Ile-L-Glu-L-Thr-L-Asp-H [procaspase-3 catabolic enzyme inhibitor]
DNA fragmentation percentage with procaspase-3 catabolic enzyme inhibitor added in stages [2]: decreased approximately depending upon the concentration

Ac—L-Leu-L-Glu-L-His-L-Asp-H [caspase-9 inhibitor]
DNA fragmentation percentage with caspase-9 inhibitor added in stages ([1]; 0 to 120 μl inhibitor preincubated 90 minutes, then DMPC liposome solution for three hours, FIG. 3): decreased approximately depending upon the concentration

Ac—L-Tyr-L-Val-L-Ala-L-Asp-H [caspase-1,4 inhibitor]
DNA fragmentation percentage with caspase-1,4 inhibitor added in stages [3]: decreased approximately depending upon the concentration
